Measurements taken from US9284307B2, “Macrocyclic serine protease inhibitors” (Idenix Pharmaceuticals LLC, priority 2009, dated 2016).

Assays:
[1] = biological target: T1, CYP2D6 (Homo sapiens, UniProt P10635); assay: In vitro CYP450 inhibition screen, luminogenic assay, CYP2D6; format: in vitro ADME; details: CYP2D6 enzyme (BD Bioscience), probe substrate Luciferin-ME EGE, average of two independent experiments, read-out: IC50 (μM) or % Inhibition at 20 μM, CYP450 2D6
T1 construct: purchased BD Bioscience
Description: (§1) CYP2C8, 2C9, 2C19 and 2D6 (BD Bioscience) inhibition luminogenic assay was performed as per the protocol provided by Promega (P450-Glo™ Assay Technical Bulletin #TB325, P450-Glo™ Screening Systems Technical Bulletin #TB340). Test articles were prepared as 10 mM stock solutions in DMSO.
(§2) Data represent the average of two independent experiments. A represents inhibition of 5 to 10%. B represents inhibition of >10% to 20%. C represents inhibition of >20% to 30%. D represents inhibition of >30% to 40%. I represents an IC50 of 5 to 9 μM.

[2] = biological target: T2, CYP1A2 (Homo sapiens, UniProt P05177); assay: In vitro CYP450 inhibition screen, fluorogenic assay, CYP1A2; format: in vitro ADME; details: probe substrate 3-Cyano-7-Ethoxycoumarin; average of two independent experiments
T2 construct: purchased BD Bioscience 459500
Description: (§3) CYP1A2 (BD Bioscience Cat #459500), CYP2B6 (BD Bioscience cat #459220), and CYP3A4 (BD Bioscience Cat #459100) inhibition fluorogenic assays were performed according to the manufacturer's protocol. Test articles were prepared as 10 mM stock solutions in DMSO.
as §2

[3] = biological target: T3, CYP2B6 (Homo sapiens, UniProt P20813); assay: In vitro CYP450 inhibition screen, fluorogenic assay, CYP2B6; format: in vitro ADME; details: probe substrate 7-Ethoxy-4-trifluoromethylcoumarin, average of two independent experiments
T3 construct: purchased BD Bioscience 459220
Description: as §3, §2

[4] = biological target: T4, CYP3A4 (Homo sapiens, UniProt P08684); assay: In vitro CYP450 inhibition screen, fluorogenic assay, CYP3A4; format: in vitro ADME; details: probe substrate 7-Benzyloxy-trifluoromethylcoumarin, average of two independent experiments, read-out: IC50 (μM) or % Inhibition at 20 μM, CYP450 3A4
T4 construct: purchased BD Bioscience 459100
Description: as §3, §2

[5] = tested on: HCV genotype 1a H77 strain subgenomic luciferase replicon (H1a-luc) in Huh-7 cells; assay: Luciferase replicon assay, genotype 1a (H1a-luc); format: cell-based; details: Hepatitis C virus, Huh-7, 72 h, read-out: EC50 Against Relpicon 1a
Description: (§4) The HCV luciferase replicon assay measures the ability of a test compound to inhibit HCV replication in cell culture after 3 days of treatment in a human hepatoma cell line (Huh-7) bearing a HCV replicon containing a luciferase-neomycin phosphotransferase fusion gene. The inhibition of HCV replication was measured by quantification of luciferase protein expression. Briefly, Huh-7 cells containing either the HCV genotype 1a H77 strain or genotype 1b Con1 strain subgenomic luciferase replicon (H1a-luc or Zluc, respectively) were grown in DMEM containing glucose, L-glutamine and sodium pyruvate, 10% fetal bovine serum (FBS), 100 IU/mL penicillin, 100 μg/mL streptomycin, 2 mM GlutaMAX, non-essential amino acids and 0.25 (H1a-luc) or 0.5 (Zluc) mg/mL G418. GlutaMAX was obtained from Invitrogen. Corp.; all other media reagents were obtained from Mediatech, Inc. For dose-response testing, the cells were seeded in 96-well plates at 1×10^4 (H1a-luc) or 7.5×10^3 (Zluc) cells/well in a volume of 50 μL, and incubated at 37° C./5% CO2. […] The assay plates were shaken for 3 minutes at room temperature and luciferase activity for each well was measured with a 1 sec read time on the Victor^3V multilabel counter using a 700 nm cut-off filter (Perkin Elmer). EC50 values were calculated from dose response curves from the resulting best-fit equations determined by Microsoft Excel and XLfit 4.1 software.

[6] = biological target: T5, CYP2C9 (Homo sapiens, UniProt P11712); assay: In vitro CYP450 inhibition screen, luminogenic assay, CYP2C9; format: in vitro ADME; details: CYP2C9 enzyme (BD Bioscience), probe substrate Luciferin-H, average of two independent experiments, read-out: IC50 (μM) or % Inhibition at 20 μM, CYP450 2C9
T5 construct: purchased BD Bioscience
Description: as §1, §2

[7] = tested on: HCV genotype 1b Con1 strain subgenomic luciferase replicon (Zluc) in Huh-7 cells; assay: Luciferase replicon assay, genotype 1b (Zluc); format: cell-based; details: Hepatitis C virus, genotype 1b Con1 luciferase replicon (Zluc), 72 hours, read-out: EC50 Against Relpicon 1b
Description: as §4

[8] = biological target: T6, CYP2C8 (Homo sapiens, UniProt P10632); assay: In vitro CYP450 inhibition screen, luminogenic assay, CYP2C8; format: in vitro ADME; details: probe substrate Luciferin-ME, average of two independent experiments
T6 construct: purchased BD Bioscience
Description: as §1, §2

[9] = biological target: T7, CYP2C19 (Homo sapiens, UniProt P33261); assay: In vitro CYP450 inhibition screen, luminogenic assay, CYP2C19; format: in vitro ADME; details: probe substrate Luciferin-H EGE, average of two independent experiments, read-out: IC50 (μM) or % Inhibition at 20 μM, CYP450 2C19
T7 construct: purchased BD Bioscience
Description: as §1, §2

[10] = Cytotoxicity evaluation (Cell Titer 96 AQueous One), Table 2; format: cell-based; details: human; cellular viability; cell line not given
Description: For cytotoxicity evaluation, H1a-luc or Zluc cells were treated with compounds as described above and cellular viability was monitored using the Cell Titer 96 AQueous One Solution Cell Proliferation Assay (Promega). Plates were then read at 490 nm in a Victor^3V 1420 multilabel counter (Perkin Elmer) and CC50 concentrations were determined using Microsoft Excel and XLfit 4.1 software.

T2 sequence (P05177 whole entry): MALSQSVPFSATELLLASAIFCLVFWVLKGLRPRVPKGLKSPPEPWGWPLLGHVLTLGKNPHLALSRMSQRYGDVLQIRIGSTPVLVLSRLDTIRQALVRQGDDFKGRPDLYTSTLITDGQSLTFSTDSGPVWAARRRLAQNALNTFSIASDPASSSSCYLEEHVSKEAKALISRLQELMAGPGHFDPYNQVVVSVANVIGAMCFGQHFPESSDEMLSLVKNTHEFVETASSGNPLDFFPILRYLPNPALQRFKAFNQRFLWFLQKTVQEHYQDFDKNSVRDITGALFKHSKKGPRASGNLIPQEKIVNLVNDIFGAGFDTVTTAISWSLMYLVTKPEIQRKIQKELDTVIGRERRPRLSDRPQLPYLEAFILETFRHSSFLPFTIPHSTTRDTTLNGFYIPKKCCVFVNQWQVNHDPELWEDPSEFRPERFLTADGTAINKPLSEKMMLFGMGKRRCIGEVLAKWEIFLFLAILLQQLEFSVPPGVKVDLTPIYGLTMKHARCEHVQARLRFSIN
T6 sequence (P10632 whole entry): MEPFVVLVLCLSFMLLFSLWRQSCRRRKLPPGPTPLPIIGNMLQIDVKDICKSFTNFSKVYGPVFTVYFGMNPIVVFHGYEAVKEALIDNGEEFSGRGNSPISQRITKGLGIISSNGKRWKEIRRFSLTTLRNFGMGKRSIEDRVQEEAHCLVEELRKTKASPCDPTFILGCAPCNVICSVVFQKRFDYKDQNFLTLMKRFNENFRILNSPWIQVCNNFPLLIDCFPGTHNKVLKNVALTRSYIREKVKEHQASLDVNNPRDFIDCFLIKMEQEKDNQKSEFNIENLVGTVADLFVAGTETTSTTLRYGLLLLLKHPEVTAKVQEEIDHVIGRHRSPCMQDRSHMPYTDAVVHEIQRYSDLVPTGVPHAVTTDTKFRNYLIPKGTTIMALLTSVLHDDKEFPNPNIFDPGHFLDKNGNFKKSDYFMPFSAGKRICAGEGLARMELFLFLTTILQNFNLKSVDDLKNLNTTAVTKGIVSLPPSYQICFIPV
T3 sequence (P20813 whole entry): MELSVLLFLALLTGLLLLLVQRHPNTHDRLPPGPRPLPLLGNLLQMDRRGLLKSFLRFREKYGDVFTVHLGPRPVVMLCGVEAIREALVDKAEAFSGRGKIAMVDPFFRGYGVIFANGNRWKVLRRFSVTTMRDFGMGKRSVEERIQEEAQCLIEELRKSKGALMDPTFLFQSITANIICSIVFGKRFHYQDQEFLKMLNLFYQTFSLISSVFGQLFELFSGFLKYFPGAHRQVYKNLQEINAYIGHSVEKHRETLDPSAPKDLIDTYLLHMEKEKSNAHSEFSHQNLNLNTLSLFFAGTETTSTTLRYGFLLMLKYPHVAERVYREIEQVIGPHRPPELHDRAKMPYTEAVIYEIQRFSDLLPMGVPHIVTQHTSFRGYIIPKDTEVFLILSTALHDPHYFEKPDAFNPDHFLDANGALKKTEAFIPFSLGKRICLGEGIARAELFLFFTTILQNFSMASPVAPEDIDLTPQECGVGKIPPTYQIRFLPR
T1 sequence (P10635 whole entry): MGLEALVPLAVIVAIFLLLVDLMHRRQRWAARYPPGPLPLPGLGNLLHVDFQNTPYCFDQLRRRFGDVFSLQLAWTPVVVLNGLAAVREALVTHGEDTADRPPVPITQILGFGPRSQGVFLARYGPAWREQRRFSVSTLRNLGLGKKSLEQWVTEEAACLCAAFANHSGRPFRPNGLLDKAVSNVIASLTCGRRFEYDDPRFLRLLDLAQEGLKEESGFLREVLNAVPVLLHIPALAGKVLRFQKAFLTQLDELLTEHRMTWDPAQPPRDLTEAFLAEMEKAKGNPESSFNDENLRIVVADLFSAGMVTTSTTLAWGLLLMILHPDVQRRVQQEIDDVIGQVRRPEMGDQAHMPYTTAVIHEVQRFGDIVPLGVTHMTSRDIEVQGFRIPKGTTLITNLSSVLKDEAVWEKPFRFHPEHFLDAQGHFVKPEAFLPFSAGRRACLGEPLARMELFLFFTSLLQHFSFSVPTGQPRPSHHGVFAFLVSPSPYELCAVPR
T7 sequence (P33261 whole entry): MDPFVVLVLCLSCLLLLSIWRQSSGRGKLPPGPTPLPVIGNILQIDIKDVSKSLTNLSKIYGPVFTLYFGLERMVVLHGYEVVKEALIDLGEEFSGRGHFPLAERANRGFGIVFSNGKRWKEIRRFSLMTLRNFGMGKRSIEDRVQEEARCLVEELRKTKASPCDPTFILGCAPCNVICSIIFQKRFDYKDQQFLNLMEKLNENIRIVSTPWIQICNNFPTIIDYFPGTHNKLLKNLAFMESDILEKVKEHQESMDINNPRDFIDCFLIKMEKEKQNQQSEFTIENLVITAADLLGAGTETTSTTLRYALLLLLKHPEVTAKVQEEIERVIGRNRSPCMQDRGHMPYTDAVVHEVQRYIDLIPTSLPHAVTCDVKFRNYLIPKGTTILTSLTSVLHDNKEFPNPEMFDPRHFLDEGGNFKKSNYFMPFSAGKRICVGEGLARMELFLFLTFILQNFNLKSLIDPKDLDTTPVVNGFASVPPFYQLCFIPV
T5 sequence (P11712 whole entry): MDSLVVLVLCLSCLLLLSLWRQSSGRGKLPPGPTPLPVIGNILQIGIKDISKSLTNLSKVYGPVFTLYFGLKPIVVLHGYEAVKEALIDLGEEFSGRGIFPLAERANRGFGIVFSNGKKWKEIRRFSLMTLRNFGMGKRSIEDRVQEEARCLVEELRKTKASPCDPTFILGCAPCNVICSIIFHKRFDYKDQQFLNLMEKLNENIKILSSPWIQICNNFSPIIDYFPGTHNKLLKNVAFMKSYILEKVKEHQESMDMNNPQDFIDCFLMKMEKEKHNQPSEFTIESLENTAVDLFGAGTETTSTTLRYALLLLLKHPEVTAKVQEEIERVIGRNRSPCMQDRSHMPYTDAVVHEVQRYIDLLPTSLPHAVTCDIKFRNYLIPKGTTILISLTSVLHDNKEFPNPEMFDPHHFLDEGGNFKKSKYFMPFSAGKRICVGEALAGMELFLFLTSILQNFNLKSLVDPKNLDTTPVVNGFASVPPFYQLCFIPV
T4 sequence (P08684 whole entry): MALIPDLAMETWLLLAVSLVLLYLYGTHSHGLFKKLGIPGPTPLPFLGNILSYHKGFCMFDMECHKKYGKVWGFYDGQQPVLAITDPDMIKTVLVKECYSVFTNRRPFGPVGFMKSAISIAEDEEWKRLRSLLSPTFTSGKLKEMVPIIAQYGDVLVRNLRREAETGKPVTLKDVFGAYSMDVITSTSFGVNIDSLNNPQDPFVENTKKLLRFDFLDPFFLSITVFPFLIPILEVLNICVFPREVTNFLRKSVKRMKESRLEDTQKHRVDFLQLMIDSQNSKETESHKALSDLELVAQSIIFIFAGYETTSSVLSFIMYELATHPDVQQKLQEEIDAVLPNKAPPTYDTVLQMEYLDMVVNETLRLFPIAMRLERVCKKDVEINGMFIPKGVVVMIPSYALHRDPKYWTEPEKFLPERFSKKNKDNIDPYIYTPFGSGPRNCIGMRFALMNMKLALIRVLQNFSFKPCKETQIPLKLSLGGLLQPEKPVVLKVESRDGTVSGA

For `COc1ccc2c(O[C@H]3CC[C@H]4C(=O)N(C)CCCC/C=C\[C@@H]5C[C@@]5(C(=O)NS(=O)(=O)C5(C)CC5)NC(=O)[C@@H]4C3)cc(-c3nc(C(F)(F)F)cs3)nc2c1C` [Compound 51], the inhibition at 20 µM [1] was 20 to 30%, the “IC50 (μM) or % Inhibition at 20 μM, CYP450 1A2” value [2] was “No Inhibition” and the “IC50 (μM) or % Inhibition at 20 μM, CYP450 2B6” value [3] was “No Inhibition”. The IC50 [4] was 20 to 25 µM, the EC50 [5] was less than 1 µM and the inhibition at 20 µM [6] was 20 to 30%. For the same compound, the EC50 [7] was less than 1 µM, the inhibition at 20 µM ([8]; human, CYP2C8 enzyme (BD Bioscience), read-out: IC50 (μM) or % Inhibition at 20 μM, CYP450 2C8) was 10 to 20% and the IC50 [9] was 9 to 15 µM. For the same compound, the CC50 at 72 h [10] was 10 to 75 µM.

With `C#Cc1csc(-c2cc(O[C@H]3CC[C@H]4C(=O)N(C)CCCC/C=C\[C@@H]5C[C@@]5(C(=O)NS(=O)(=O)C5(C)CC5)NC(=O)[C@@H]4C3)c3ccc(OC)c(C)c3n2)n1` [Compound 52, (1aR,3aR,5S,7aR,15aS,Z)-5-(2-(4-ethynylthiazol-2-yl)-7-methoxy-8-methylquinolin-4-yloxy)-9-methyl-N-(1-methylcyclopropylsulfonyl)-3,8-dioxo-1a,2,3,3a,4,5,6,7,7a,8,9,10,11,12,13,15a-hexadecahydro-1H-benzo[c]cyclopropa[g][1,6]diazacyclotetradecine-1a-carboxamide] the inhibition at 20 µM [1] was 5 to 10%, the “IC50 (μM) or % Inhibition at 20 μM, CYP450 1A2” value [2] was “No Inhibition” and the inhibition at 20 µM ([3]; human, CYP2B6 enzyme (BD Bioscience cat #459220), probe 7-Ethoxy-4-trifluoromethylcoumarin, read-out: IC50 (μM) or % Inhibition at 20 μM, CYP450 2B6) was 30 to 40%. It also gave an IC50 [4] of 15 to 20 µM, an EC50 [5] of less than 1 µM and an inhibition at 20 µM [6] of 20 to 30%. The EC50 [7] was less than 1 µM, the “IC50 (μM) or % Inhibition at 20 μM, CYP450 2C8” value [8] was “No Inhibition” and the IC50 [9] was 9 to 15 µM. For the same compound, the CC50 at 72 h [10] was greater than 75 µM.
